Laboratory results as given in patent US7582786B2, “Synthetic catalytic free radical scavengers useful as antioxidants for prevention and therapy of disease” (Eukarion Inc., priority 1996, dated 2009).
“Also recorded” adds a separate entry of the source.

What was measured:
[1] = SOD activity, xanthine/xanthine oxidase with NBT as acceptor (Example 2); format: biochemical
Procedure: Superoxide dismutase (SOD) activity was assayed by following the inhibition of the reduction of an electron acceptor molecule in the presence of the free-radical generating system xanthine/xanthine oxidase (McCord et al. (1973) Superoxide and Superoxide Dismutase in “Oxidases and Related Redox Systems, vol. I, King et al. eds., University Park press, Baltimore, pp. 51-76). The assay mixture consisted of 50 mM sodium phosphate, pH 7.8, 120 μM xanthine, 0.2 units/ml xanthine oxidase, with acceptor molecule and salen manganese compound, as indicated. Assays were conducted at 27±0.2° C. using a water-jacketed cell holder in a Beckman DU7400 spectrophotometer. In most cases, oxidized cytochrome c, at 0.13 mg/ml, was employed as acceptor and its reduction was monitored spectrophotometrically at 550 nm. In some experiments, nitroblue tetrazolium (NBT), at 80 μM, was substituted for cytochrome c as the acceptor. NBT reduction was also monitored at 550 nm. An estimated extinction coefficient for NBT reduction, 20,800 M^−1cm^−1, determined empirically by exhaustive reduction of NBT in the reaction mixture described above, was employed where indicated. This value agreed well with reported extinction coefficients for reduced tetrazolium dyes. […] Conversion of xanthine to urate was calculated using ε290's of […] for urate and 4050 M^−1cm^−1 for xanthine. […]

[2] = Catalase activity, decomposition of hydrogen peroxide monitored at 240 nm (Example 1); format: biochemical; conditions: Example 1, H2O2 decomposition at 240 nm
Procedure: Catalase activity was measured using a spectrophotometric method in which the decomposition of hydrogen peroxide is monitored at 240 nm according to the method of Aebi et al. (1984) Methods Enzymol. 105: 121, incorporated herein by reference. One unit of catalase activity is defined as the amount of enzyme (or salen-metal complex) required to decompose 1 μmole of hydrogen peroxide in one minute.

Hippocampal slices = assay: Lactic acid-induced lipid peroxidation in hippocampal slices; format: cell-based, rat; conditions: C7 50 μM, 30 mM lactate pH 5.0, 100 minutes
Procedure: Hippocampal slices (400 μm thick) were obtained from Sprague-Dawley rats (150-200 g) and collected in preoxygenated (95% O2/5% CO2) Krebs-Ringer phosphate medium (pH 7.4) containing NaCl 120 mM, KCl 5 mM, CaCl2 1.3 mM, MgCl2 1.2 mM, NaPhosphate 16 mM (pH 7.4) and glucose 10 mM. After 15 minutes preincubation in a water bath at 35° C. under agitation, the buffer was replaced with the same buffer (control) or a modified buffer (lactate buffer) containing NaCl 90 mM, KCl 5 mM, CaCl2 1.3 mM, MgCl2 1.2 mM, NaPhosphate 16 mM and lactic acid 30 mM (pH 5.0). […] After 100 minutes, slices were collected and homogenized in 0.9 ml of TCA 5%, whereas 0.35 ml of TCA 5% was added to 0.5 ml of the incubation medium. Lipid peroxidation was measured by adding 0.25 ml of a thiobarbituric acid reagent (TBAR) to 0.85 ml of the TCA extracts and incubating the mixture for 60 minutes at 85-93° C. Lipids were then extracted with 2×0.5 ml 1-butanol by vortexing for 10 seconds, then centrifuging at 2,000 rpm for 10 minutes. The absorbance of peroxidized lipids in the alcohol phase was measured in a spectrophotometer at 532 nm. Data were expressed as nmoles of malondialdehyde (MDA) using authentic MDA to establish a standard curve. Proteins were measured from an aliquot of the TCA extracts using the method of Bradford and the final results were calculated as nmoles MDA formed/mg protein.

[3] = C7 inactivation in H2O2, HPLC; format: physicochemical; conditions: 100 μM C7, 1 mM H2O2, with 1 mM ABTS
Procedure: Where indicated, 1 mM ABTS was also present. Components were mixed and, after various incubations times, a 30 μl aliquot was injected onto the HPLC. The mixtures were chromatographed on an octadecyl-silica column using a mobile phase consisting of 60% methanol:40% 0.1 M Nacl and a flow rate of 1 ml/min. […] A third component, with a retention time of 4.8 min, was detectable under some conditions; its appearance and disappearance was monitored but it was not further analyzed. In this system, ABTS and its oxidized product had retention times of 3.4 and 3.1-min, respectively, well resolved from the peaks of interest. Absorbance spectra collected during each run allowed the identity of C7 and salicylaldehyde to be verified. All peaks were integrated based upon their absorbance at 240 nm. The results are expressed as the percentage of maximum peak area. […] For the two putative breakdown products, this is equivalent to the largest peak observed during the course of the ˜2000 sec incubation period.

mice = assay: Mouse model for delayed hypersensitivity (oxazolone, ear edema); format: in vivo; conditions: topical, 2.5 micrograms C7 per ear
Procedure: Mice (“Presensitized” and “Presensitized+C7” groups) were presensitized with oxazolone on the abdomen. One group (“Not presensitized”) received only vehicle on the abdomen at this time. After 7 days, each mouse was challenged with the oxazolone hapten on one ear and given vehicle only on the opposite ear. […] The other two groups received an equivalent volume of 90% acetone. Twenty-four hr after challenge, mice were sacrificed and ear edema was assessed by determining the wet weight/dry weight ratio. (Wet weight was determined by weighing the freshly dissected ear and dry weight was determined after lyophilization to a constant weight.)
Mice (“Presensitized” and “Presensitized+C7” groups) were presensitized with oxazolone on the abdomen. One group (“Not presensitized”) received only vehicle on the abdomen at this time. After 7 days, each mouse were challenged with the oxazolone hapten on one ear and given vehicle only on the opposite ear. […] The other two groups received an equivalent volume of 90% acetone. Twenty-four hr after challenge, mice were sacrificed and ear edema was assessed by determining the wet weight/dry weight ratio. (Wet weight was determined by weighing the freshly dissected ear and dry weight was determined after lyophilization to a constant weight.)

MRL/lpr mice = assay: Lifespan of autoimmune MRL/lpr mice; format: in vivo; conditions: 1 mg/mouse intraperitoneally three times per week
Excerpt: MRL/lpr mice develop autoantibodies and numerous autoimmune associated pathologies and die prematurely (mean lifespan ˜150 days). They are considered a mouse model for autoimmune disorders such as lupus. […] Control mice received vehicle injections only or were left untreated.
MRL/lpr mice develop autoantibodies and numerous autoimmune associated pathologies and die prematurely (mean lifespan˜150 days). They are considered a mouse model for autoimmune disorders such as lupus. […] Control mice received vehicle injections only or were left untreated.

[4] = tested on: Rat hippocampal slices in culture; assay: Beta-amyloid peptide-induced cytotoxicity in hippocampal slice cultures; format: cell-based; conditions: C7 25 μM
Procedure: Rat hippocampal slices in culture were incubated with the beta-amyloid peptide (1-42) at the indicated concentrations. Cell viability was assessed by two criteria: release of lactate dehydrogenase (L*H) into the culture medium and staining with propidium […] iodide (PI) which binds to exposed DNA.
Rat hippocampal slice cultures were incubated with the beta-amyloid peptide (1-42) at the indicated concentrations. Cell viability was assessed by two criteria: release of lactate dehydrogenase (L*H) into the culture medium and staining with propidium iod*de (PI) which binds to exposed DNA.

With `[Cl][Mn]1[O]c2ccccc2C=NCCN=Cc2ccccc2[O]1` [Compound C7] the NBT reduction ([1]; 0.1 to 6 μM C7) was “inhibited the rate of NBT reduction in a concentration-dependent manner; also recorded: inhibits NBT reduction”, the “inhibition of NBT reduction” value ([1]; about 1.7 nmoles C7) was “about 59%” and the “Catalase Activity” value [2] was 200 units/mM. For the same molecule, the “lactate-induced increase in lipid peroxidation” value (Hippocampal slices) was “totally abolished; also recorded: protects”, the “C7 peak disappeared rapidly” value [3] was “about 20%” and the “C7 persisting for the ~2000 sec incubation” value [3] was 80%. The “protection, ear edema” value (mice) was “protective”, the lifespan (MRL/lpr mice) was “prolongs the life” and the “protection from beta-amyloid peptide-induced cytotoxicity” value [4] was “protect neurons; also recorded: protects neuronal tissue”.
